Tests used:
pepsin = biological target: T1, pepsin (Sus scrofa, UniProt P00791); assay: Trichloroacetic acid (TCA) precipitation assay, pepsin against haemoglobin; type: biochemical, porcine; settings: pH 2; FIG. 4
T1 construct: purchased Sigma-Aldrich Ltd, UK; host or cells: porcine gastric mucosa
Experimental: The TCA assay is based on the method described by M. L. Anson (1938). J General Physiol, 22, 79-89. The substrate, bovine haemoglobin, is digested by pepsin. Any remaining undigested haemoglobin is then precipitated with TCA to yield a supernatant which contains only products of digested haemoglobin. The concentration of haemoglobin breakdown products in the supernatant is measured spectrophotometrically and provides an indication of proteinase activity. The TCA precipitation assay was used to determine the inhibitory effect of polyphosphates and trimetaphosphate on the action of pepsin against haemoglobin.
A series of test solutions containing between 0-306 mg/ml of the proposed inhibitor were prepared. 100 μl of this test solution was then thoroughly mixed with 100 μl of pepsin solution on a vortex mixer before 1500 μl of buffered bovine haemoglobin solution was added and mixed. The inhibitor:enzyme:haemoglobin sample was then incubated in a heated water bath for 30 minutes at 37° C. The samples was then removed from the incubator, mixed with 2.0 ml TCA solution and left to stand for 30 minutes in iced water. […] The absorbance of the supernatant was measured at 280 nm (Labsystems Multiskan Ascent 354, ThermoFisher Scientific, Horsham, West Sussex, UK) using deionised water as a blank. […]

elastase = biological target: T2, elastase (Sus scrofa, UniProt P00772); assay: Elastin Congo red assay; type: biochemical, porcine; settings: pH 8; FIG. 12, 13, 14
T2 construct: Elastase (from porcine pancreas Type I, aqueous); purchased Sigma-Aldrich Ltd, UK; host or cells: porcine pancreas
T2 sequence (P00772 27-266): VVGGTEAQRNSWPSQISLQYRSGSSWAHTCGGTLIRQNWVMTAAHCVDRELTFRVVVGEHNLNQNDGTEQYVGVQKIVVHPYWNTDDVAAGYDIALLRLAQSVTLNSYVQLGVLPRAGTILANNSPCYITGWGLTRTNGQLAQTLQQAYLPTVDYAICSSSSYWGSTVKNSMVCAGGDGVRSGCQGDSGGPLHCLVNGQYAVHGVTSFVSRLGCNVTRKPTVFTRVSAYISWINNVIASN
Experimental: Elastin Congo red is a commercially available elastin substrate impregnated with the chromophore Congo red. In the presence of elastase the Congo red dye is liberated from the elastin and the resulting colour change can be measured and correlated with elastolytic activity. The elastin Congo red assay was used to determine the inhibitory effect of polyphosphates and trimetaphosphate on the elastase against the elastin Congo red substrate.
A series of test solutions containing between 0-306 mg/ml of the proposed inhibitor were prepared. 100 μl of this test solution was then thoroughly mixed with 100 μl of elastase solution on a vortex mixer. […] of buffered Elastin Congo red solution was then added and mixed. The inhibitor:enzyme:Elastin Congo red sample was then incubated overnight in a heated water bath at 37° C. Samples were then removed from the water bath and placed in iced water to cool for 30 minutes before being centrifuged (Fisher Scientific, accuSpin Model 400 Benchtop Centrifuge) at 13000 rpm for 5 minutes. The absorbance of the supernatant was measured at 540 nm (Labsystems Multiskan Ascent 354, ThermoFisher Scientific, Horsham, West Sussex, UK) using deionised water as a blank. […]

T1 sequence (P00791 60-385): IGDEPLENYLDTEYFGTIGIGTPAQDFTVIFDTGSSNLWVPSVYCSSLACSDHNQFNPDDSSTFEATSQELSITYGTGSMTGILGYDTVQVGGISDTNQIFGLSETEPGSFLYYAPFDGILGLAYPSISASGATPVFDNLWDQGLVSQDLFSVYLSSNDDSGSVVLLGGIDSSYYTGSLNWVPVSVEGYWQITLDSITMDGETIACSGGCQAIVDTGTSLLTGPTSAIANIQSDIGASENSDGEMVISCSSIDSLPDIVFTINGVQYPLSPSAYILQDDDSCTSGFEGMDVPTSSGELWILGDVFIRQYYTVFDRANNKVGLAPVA

In the case of `O=P1([O-])OP(=O)([O-])OP(=O)([O-])O1.[Na+].[Na+].[Na+]` [sodium trimetaphosphate], the “inhibition of pepsin (in words)” value (pepsin) is reported as “could also inhibit pepsin across a wide concentration range; however, the potency and extent of inhibition at maximal concentrations was not as large as that observed with polyphosphates” and the “inhibition of elastase (in words, comparison)” value (elastase) is reported as “could also inhibit elastase across a wide concentration range; however, the extent of inhibition at maximal concentrations was not as large as that observed with polyphosphates”.
